From patent US20040214832A1, “Piperazine derivative renin inhibitors” (priority 2003, published 2004)

target: T1, human renin (Homo sapiens, UniProt P00797); assay: Determination of renin IC50 by tGFP FRET assay; format: biochemical; conditions: Human recombinant renin, tandem GFP substrate 650 nM, 60 min incubation with compound, pH 7.4, 11-point curve
T1 sequence (P00797 67-406): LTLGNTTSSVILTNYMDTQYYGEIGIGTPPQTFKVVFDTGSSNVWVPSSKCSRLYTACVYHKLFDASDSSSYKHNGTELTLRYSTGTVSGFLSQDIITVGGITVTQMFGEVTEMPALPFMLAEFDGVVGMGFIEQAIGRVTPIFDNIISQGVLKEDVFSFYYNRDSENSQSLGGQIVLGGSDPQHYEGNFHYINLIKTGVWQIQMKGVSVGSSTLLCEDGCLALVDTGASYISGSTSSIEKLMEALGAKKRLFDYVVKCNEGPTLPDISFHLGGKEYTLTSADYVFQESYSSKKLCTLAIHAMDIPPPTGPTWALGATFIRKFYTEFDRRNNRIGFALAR
Text: Determination of Renin IC50 by tGFP FRET Assay
The tGFP FRET (fluorescence resonance energy transfer) assay utilizes a tandem GFP substrate (60 kDa, Discovery Technologies) containing nine amino acid recognition sequences for human renin flanked by two GFP proteins. The assay is used to determine the ability of a compound to act as an inhibitor of renin enzymatic activity by determination of that concentration of test compound that inhibits by 50% (IC50) the ability of renin to cleave the tandem GFP substrate. The IC50 values are determined over an 11-point curve at concentrations of 100 μM to 1 pM. Each compound concentration used to construct the curve was dependent on renin inhibitor potency. For example, subnanomolar IC50 values were determined over an 11-point curve at concentrations of 10 μM to 1 pM. All other IC50 values were determined over an 11-point curve at concentrations of 100 μM to 0.0065 μM. The concentrations were achieved by diluting a 9.1 nM stock of Human recombinant renin in the appropriate amount of buffer containing 50 mM HEPES, 1 mM EDTA, 1% PEG (8000 MW), 1 mM DTT, 0.1% BSA, pH 7.4 to achieve the final concentration of 50.4 μIU. The tGFP substrate stock solution of 43 μM was diluted with the appropriate amount of the above buffer to obtain the final concentration of 650 nM. In addition, 1 μl of the compound is diluted in dimethylsulfoxide (DMSO) to represent an […] log scale (5% final). The SR renin and compound are added to a 384 capacity plate by an automated robot (BIOMEK). The plate is incubated for 60 minutes; upon completion the tGFP substrate is added.
The IC50 is determined by monitoring the increase in […] at 432/432 nm excitation, 530/475 nm emission with a cutoff at 515/455 nm, in a fluorometric plate reader.

Question: How did the IC50 turn out when `COc1ccccc1COCCCOc1ccc(N2C(=O)CNC[C@@H]2COC(=O)c2ccc(Cl)cc2)cc1` [Example 60, 4-chloro-benzoic acid (2R)-1-{4-[3-(2-methoxybenzyloxy)-propoxy]-phenyl}-6-oxopiperazin-2-yl methyl ester] was run?
Answer: > 1000 nM

Question: Which IC50 does the source give for `COc1ccccc1COCCCOc1ccc(N2C(=O)CNC[C@@H]2COCc2ccc(F)cc2)cc1` [Example 8, (6R)-6-(4-fluorobenzyloxymethyl)-1-{4-[3-(2-methoxybenzyloxy)-propoxy]-phenyl}-piperazin-2-one] here?
Answer: 454 nM

Question: With `COc1ccccc1COCCOCc1ccc(N2C(=O)CNC[C@@H]2COCc2ccc(F)cc2)cc1` [Example 74, (6R)-6-(4-fluorobenzyloxymethyl)-1-{4-[2-(2-methoxybenzyloxy)-ethoxymethyl]-phenyl}-piperazin-2-one] as the molecule, how does the IC50 read?
Answer: 4090 nM

Question: `COc1ccccc1COCCCOc1ccc(N2C(=O)CNC[C@@H]2COCc2ccc(Br)cc2)cc1` [Example 30, (6R)-6-(4-bromobenzyloxymethyl)-1-{4-[3-(2-methoxybenzyloxy)-propoxy]-phenyl}-piperazin-2-one] was tested. Which IC50 did it give?
Answer: > 1000 nM

Question: Which IC50 does the source give for `COc1ccccc1COCCCOc1ccc(N2C(=O)CNC[C@@H]2COCc2cccc(F)c2)cc1` [Example 18, (6R)-6-(3-fluorobenzyloxymethyl)-1-{4-[3-(2-methoxybenzyloxy)-propoxy]-phenyl}-piperazin-2-one] here?
Answer: > 1000 nM

Question: Which IC50 does the source give for `COCCCN1C(=O)CCc2ccc(OC[C@H]3CNCC(=O)N3c3ccc(OCCCOCc4ccccc4OC)cc3)cc21` [Example 111, 7-([2R]-1-{4-[3-(2-Methoxybenzyloxy)-propoxy]-phenyl}-6-oxopiperazin-2-ylmethoxy)-1-(3-methoxypropyl)-3,4-dihydro-1H-quinolin-2-one] here?
Answer: 3.91 nM

Question: How did the IC50 turn out when `COc1ccccc1COCCCOc1ccc(N2C(=O)CNC[C@@H]2COc2cccc(-c3ccccc3)c2)cc1` [Example 106, (6R)-6-(biphenyl-3-yloxymethyl)-1-{4-[3-(2-methoxybenzyloxy)-propoxy]-phenyl}-piperazin-2-one] was run?
Answer: 1510 nM

Question: `COc1ccc(COC[C@H]2CNCCN2c2ccc(OCCCOCc3ccc(Cl)c(Cl)c3)cc2)cc1` [Example 63, (2R)-1-{4-[3-(3,4-dichlorobenzyloxy)-propoxy]-phenyl}-2-(4-methoxybenzyloxymethyl)-piperazine] was tested. Which IC50 did it give?
Answer: 11500 nM

Question: How did the IC50 turn out when `COc1ccccc1OCCCCOc1ccc(N2C(=O)CNC[C@@H]2COCc2ccc(F)cc2)cc1` [Example 71, (6R)-6-(4-fluorobenzyloxymethyl)-1-{4-[4-(2-methoxyphenoxy)-butoxy]-phenyl}-piperazin-2-one] was run?
Answer: 3840 nM

Question: Which IC50 does the source give for `COc1ccccc1COCCCOc1ccc(N2C(=O)CNC[C@@H]2COc2ccc3c(c2)N(CCO)CCC3)cc1` [Example 57, (6R)-6-[1-(2-hydroxyethyl)-1,2,3,4-tetrahydroquinolin-7-yloxymethyl]-1-{4-[3-(2-methoxybenzyloxy)-propoxy]-phenyl}-piperazin-2-one] here?
Answer: 64 nM

Question: With `COc1ccc(COC[C@H]2CNCCN2c2ccc(OCCCOCc3ccc(C)cc3)cc2)cc1` [Example 68, (2R)-2-(4-methoxybenzyloxymethyl)-1-{4-[3-(4-methylbenzyloxy)-propoxy]-phenyl}-piperazine] as the molecule, how does the IC50 read?
Answer: 60200 nM

Question: For `O=C(NCCc1ccccc1)c1ccc(N2C(=O)CNC[C@@H]2COc2ccc3ccccc3c2)cc1` [Example 47, 4-[(2R)-2-(naphthalen-2-yloxymethyl)-6-oxopiperazin-1-yl]-N-phenethylbenzamide], which IC50 is on record?
Answer: > 1000 nM

Question: `COc1ccccc1COCCCOc1ccc(N2C(=O)CNC[C@@H]2COc2ccc3c(c2)CCCN3C(C)=O)cc1` [Example 54, (6R)-6-(1-acetyl-1,2,3,4-tetrahydroquinolin-6-yloxymethyl)-1-{4-[3-(2-methoxybenzyloxy)-propoxy]-phenyl}-piperazin-2-one] was tested. Which IC50 did it give?
Answer: > 1000 nM

Question: For `COc1ccccc1COCCCOc1ccc(N2C(=O)CNC[C@@H]2COCc2ccccc2)cc1` [Example 45, (6R)-6-benzyloxymethyl-1-{4-[3-(2-methoxybenzyloxy)-propoxy]-phenyl}-piperazin-2-one], which IC50 is on record?
Answer: 7010 nM

Question: `COc1ccccc1COCCCOc1ccc(N2C(=O)CNC[C@@H]2COCc2ccncc2)cc1` [Example 25, (6R)-1-{4-[3-(2-methoxybenzyloxy)-propoxy]-phenyl}-6-(pyridin-4-ylmethoxymethyl)-piperazin-2-one] was tested. Which IC50 did it give?
Answer: > 1000 nM

Question: Which IC50 does the source give for `COc1ccccc1COCCCOc1ccc(N2C(=O)CNC[C@@H]2COc2ccc3ccccc3c2)cc1F` [Example 39, (6R)-1-{3-fluoro-4-[3-(2-methoxybenzyloxy)-propoxy]-phenyl}-6-(naphthalen-2-yloxymethyl)-piperazin-2-one] here?
Answer: 152 nM

Question: With `COc1ccccc1COCCCOc1ccc(N2C(=O)CNC[C@@H]2COc2ccc(NC(C)=O)cc2)cc1` [Example 93, N-[4-([2R]-1-{4-[3-(2-methoxybenzyloxy)-propoxy]-phenyl}-6-oxopiperazin-2-ylmethoxy)-phenyl]-acetamide] as the molecule, how does the IC50 read?
Answer: > 1000 nM

Question: `COCc1ccc(N2CCNC[C@@H]2COc2ccc3ccccc3c2)cc1` [Example 99, (2R)-1-(4-methoxymethylphenyl)-2-(naphthalene-2-yloxymethyl)-piperazine] was tested. Which IC50 did it give?
Answer: > 1000 nM

Question: Which IC50 does the source give for `COc1ccccc1OCCCCOc1ccc(N2C(=O)CNC[C@@H]2COc2ccc3ccccc3c2)cc1` [Example 73, (6R)-1-{4-[4-(2-methoxyphenoxy)-butoxy]-phenyl}-6-(naphthalen-2-yloxymethyl)-piperazin-2-one] here?
Answer: 1730 nM

Question: Which IC50 does the source give for `COC(=O)CN1CCCc2ccc(OC[C@H]3CNCC(=O)N3c3ccc(OCCCOCc4ccccc4OC)cc3)cc21` [Example 110, {7-[(2R)-1-{4-[3-(2-Methoxybenzyloxy)-propoxy]-phenyl}-6-oxopiperazin-2-ylmethoxy]-3,4-dihydro-2H-quinolin-1-yl}-acetic acid methyl ester] here?
Answer: 4.09 nM

Question: With `COc1ccccc1COCCCOc1ccc(N2C(=O)CNC[C@@H]2COCc2cc(Cl)cc(Cl)c2)cc1` [Example 20, (6R)-6-(3,5-dichlorobenzyloxymethyl)-1-{4-[3-(2-methoxybenzyloxy)-propoxy]-phenyl}-piperazin-2-one] as the molecule, how does the IC50 read?
Answer: > 1000 nM

Question: `COc1ccccc1COCCCOc1ccc(N2C(=O)CNC[C@@H]2COC(=O)c2ccccc2)cc1` [Example 61, benzoic acid (2R)-1-{4-[3-(2-methoxybenzyloxy)-propoxy]-phenyl}-6-oxopiperazin-2-yl methyl ester] was tested. Which IC50 did it give?
Answer: > 1000 nM

Question: With `COc1ccccc1COCCCOc1ccc(N2C(=O)CNC[C@@H]2COc2ccc3ccccc3c2)cc1` [Example 37, (6R)-1-{4-[3-(2-methoxybenzyloxy)-propoxy]-phenyl}-6-(naphthalen-2-yloxymethyl)-piperazin-2-one] as the molecule, how does the IC50 read?
Answer: 54 nM

Question: With `Fc1ccccc1COCCCOc1ccc(N2CCNC[C@@H]2COc2ccc3ccccc3c2)cc1` [Example 87, (2R)-1-{4-[3-(2-fluorobenzyloxy)-propoxy]-phenyl}-2-(naphthalen-2-yloxymethyl)-piperazine] as the molecule, how does the IC50 read?
Answer: 597 nM

Question: Which IC50 does the source give for `CCOc1ccccc1COCCCOc1ccc(N2CCNC[C@@H]2COc2ccc3ccccc3c2)cc1` [Example 88, (2R)-1-{4-[3-(2-ethoxybenzyloxy)-propoxy]-phenyl}-2-(naphthalen-2-yloxymethyl)-piperazine] here?
Answer: 1980 nM

Question: With `COc1ccccc1COCCCOc1ccc(N2C(=O)CNC[C@@H]2COCc2ccccc2F)cc1` [Example 3, (6R)-6-(2-fluorobenzyloxymethyl)-1-{4-[3-(2-methoxybenzyloxy)-propoxy]-phenyl}-piperazin-2-one] as the molecule, how does the IC50 read?
Answer: 225 nM
